The record followed here is ChEMBL document CHEMBL2074167, “Sterol transport by the human breast cancer resistance protein (ABCG2) expressed in Lactococcus lactis” (J Biol Chem, 2003).

Series [1] deals with T1, Broad substrate specificity ATP-binding cassette transporter ABCG2 (Homo sapiens, UniProt Q9UNQ0).
T1 sequence (Q9UNQ0 whole entry): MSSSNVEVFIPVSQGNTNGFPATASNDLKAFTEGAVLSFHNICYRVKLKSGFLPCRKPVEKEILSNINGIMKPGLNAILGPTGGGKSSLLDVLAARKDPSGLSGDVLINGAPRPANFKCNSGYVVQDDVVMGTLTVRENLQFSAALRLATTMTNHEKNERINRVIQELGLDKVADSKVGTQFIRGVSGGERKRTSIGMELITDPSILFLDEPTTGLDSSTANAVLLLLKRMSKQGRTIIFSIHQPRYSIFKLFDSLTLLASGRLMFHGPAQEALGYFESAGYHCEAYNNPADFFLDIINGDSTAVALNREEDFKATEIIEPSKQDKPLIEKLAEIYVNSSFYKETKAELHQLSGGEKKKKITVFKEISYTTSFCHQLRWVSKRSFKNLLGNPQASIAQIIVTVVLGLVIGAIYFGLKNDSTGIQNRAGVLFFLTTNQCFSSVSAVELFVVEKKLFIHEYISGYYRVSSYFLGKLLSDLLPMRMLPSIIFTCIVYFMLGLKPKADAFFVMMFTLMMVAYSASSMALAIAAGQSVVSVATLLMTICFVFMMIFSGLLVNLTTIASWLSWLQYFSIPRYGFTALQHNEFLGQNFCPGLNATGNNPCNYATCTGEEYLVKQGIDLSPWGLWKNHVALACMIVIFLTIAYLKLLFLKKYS
Kind of series: TP_TRANSPORTER: ATPase assay in membrane vesicle from BCRP-expressing Lactococcus lactis cells. Format: functional, cell membranes, NZ9000.

For series [2], the target named is T1, Broad substrate specificity ATP-binding cassette transporter ABCG2. Description: TP_TRANSPORTER: uptake in membrane vesicle from BCRP-expressing Lactococcus lactis cells. Format: functional, cell membranes, NZ9000.
The target is the same in series [3]. Kind of series: TP_TRANSPORTER: uptake in BCRP-expressing Lactococcus lactis cells. It counts as functional, NZ9000.
The target is the same in series [4]. Description: TP_TRANSPORTER: growth inhibition in BCRP-expressing Lactococcus lactis cells. It counts as functional, NZ9000.

Consider `COc1cccc2c1C(=O)c1c(O)c3c(c(O)c1C2=O)C[C@@](O)(C(C)=O)C[C@@H]3O[C@H]1C[C@H](N)[C@H](O)[C@H](C)O1` [DAUNORUBICIN], for which, in series [1], the Activity entry was “substrate []”.
In the case of `CCOc1ccc(-c2nc3cc(-c4nc5cc(N6CCN(C)CC6)ccc5[nH]4)ccc3[nH]2)cc1`, the Activity result in series [2] and in series [3] was “substrate []” in each case.
In the case of `C[C@]12CC[C@@H]3c4ccc(O)cc4CC[C@H]3[C@@H]1CC[C@@H]2O` [ESTRADIOL], the Activity result in series [3] and in series [1] was “substrate []” in each case.
Consider `CC(=O)[C@H]1CC[C@H]2[C@@H]3CCC4=CC(=O)CC[C@]4(C)[C@H]3CC[C@]12C` [PROGESTERONE], for which the Activity result in series [1] is “substrate []”.
As for `COC(=O)c1ccccc1-c1c2ccc(=N)cc-2oc2cc(N)ccc12.Cl` [RHODAMINE123], the Activity entry in series [3] is “substrate []”.
With `C[C@]12CC[C@H]3[C@@H](CCC4=CC(=O)CC[C@@]43C)[C@@H]1CC[C@@H]2O` [TESTOSTERONE], in series [1], the Activity result was “substrate []”.
As for `CC[n+]1c(-c2ccccc2)c2cc(N)ccc2c2ccc(N)cc21.[Br-]` [HOMIDIUM BROMIDE], the Activity result in series [3] and in series [4] was “substrate []” each time.
Take `CC(C)CCC[C@@H](C)[C@H]1CC[C@H]2[C@@H]3CC=C4C[C@@H](O)CC[C@]4(C)[C@H]3CC[C@]12C` [CHOLESTEROL]: the Activity result in series [1] was “substrate []”.
For the molecule `CC/C(=C(\c1ccccc1)c1ccc(OCCN(C)C)cc1)c1ccccc1` [TAMOXIFEN], the Activity result in series [1] was “substrate []”.
